Inhibition and inhibition data for one molecule are collected here from ChEMBL document CHEMBL1141274, “A Polysaccharide from tomato (Lycopersicon esculentum) peels affects NF-kappaB activation in LPS-stimulated J774 macrophages” (2007).

Structures are written as SMILES.

Assay type in all cases: functional
Experiment [1] deals with J774. Kind of experiment: Inhibition of iNOS protein expression in mouse J774 cells by Bio-Rad protein assay.
For experiment [2], the system named is J774. In words: Inhibition of LPS induced iNOS mRNA level in mouse J774 cells at 10 uM by RT-PCR.
Experiment [3] concerns J774. Kind of experiment: Inhibition of LPS induced ROS production in mouse J774 cells at 10 uM after 24 hrs relative to control. As to conditions: J774, 24 h.
Experiment [4] concerns J774. In words: Inhibition of LPS induced nitrite production in mouse J774 cells at 10 uM after 24 hrs relative to control. As to conditions: J774, 24 h.

As to `S=C(S)N1CCCC1` [PYRROLIDINE DITHIOCARBAMATE], the Inhibition in experiment [1] is on record as 60%. Further, the inhibition at 10 µM turned out to be 63.9% in experiment [2], 42.2% in experiment [3] and 69.3% in experiment [4].

Usually Inhibition stands for the drop in the measured response relative to a control, in per cent. A high value points to a strong effect. By inhibition is commonly meant the relative decrease from the control value, in per cent. Read a low inhibition as a weak effect.
